Consider 1 substance from patent publication US12661404B2, “Methods and materials for tissue ablation” (Mayo Foundation for Medical Education and Research, priority 2020, dated 2026).

The conditions of series [1]: rat, in vivo. Here is the method: Next, in vivo experiments in immunocompetent rats bearing the highly malignant orthotropic N1S1 liver tumors were ablated using LATTE. Percutaneous injection of LATTE was performed and assessment also included CT imaging to mimic the clinical scenario. […] These tumors also received high-resolution in vivo micro-CT imaging following intravenous injection of Exitron contrast agent to allow accurate segmentation of the liver tumors (FIG. 1p-q). […] These tumors at two-weeks were also harvested and evaluated by histology.
All procedures were approved by the institutional animal care and use committee and performed according to institutional guidelines. […] N1S1 cells were maintained in suspension in a 75 cm^2 culture flasks at 37° C. in a 5% CO2 humidified chamber. […] To prepare the cells for inoculation, N1S1 cell aliquots were rinsed and suspended in plain IMDM (without antibiotics or serum) to yield 2×10^6 cells in 100 μL of fresh aliquots for each inoculation. The rat liver was surgically exposed through upper midline laparotomy under isoflurane anesthesia followed by subcapsular inoculation of N1S1 cells into the left liver lobe. Gentle compression with gauze for hemostasis was used to prevent cell reflux. The abdominal incision was closed using interrupted Vicryl sutures for abdominal muscle and subcuticular suture for the skin, followed by the application of Vetbond tissue adhesive (3M, St. Paul, MN) followed by recovery from anesthesia. Intratumoral injection of the ionic liquid mixture was performed in three groups of rats bearing 0.5 cm^3 N1S1 tumor lesions measured with ultrasound. […] All solutions contained 0.25 mg/mL indocyanine green (ICG, Sigma-Aldrich, St. Louis, MO) solubilized in normal saline. Following intratumoral injections, treated rats were allowed to survive for 2 weeks after treatment, and tumor volume was documented using ultrasound. N1S1 tumor progression and treatment response was assessed using percutaneous ultrasonography. Selected focal zone depth, gain, and tissue harmonic settings were optimized during the acquisition of the initial imaging at baseline, and the same parameters were applied during acquisition after intratumoral injection of LATTE mixture. Serial ultrasound examinations were performed on rat livers following N1S1 inoculation to confirm tumor formation and assess tumor volume. Rats were anesthetized using a gas mixture of 2-3% isoflurane in 100% oxygen via a nose cone. Rats were secured in a supine position on an electronically controlled warming platform to maintain the temperature at 37° C. during the imaging procedure. The abdominal area was shaved and prepped with depilatory cream (Nair, Church& Dwight Co. INC). Initially, abdominal sonography was performed to delineate tumor mass boundaries in grayscale (B-mode) using ACUSON 52000 system (Siemens Inc., Germany) and a multi-frequency linear transducer (9L4, 9.0 MHz). The transducer was positioned to obtain 2D scans via the subcostal window to document liver tumors and measure lesion diameter. […] Tumor volumes were calculated as following: V=(4/3)×π×(1/2) SI×(1/2)LM×1/2 AP. Color Doppler images were also acquired to detect the distribution of the tumor blood flow weekly.

The subject of another series is VX2 liver tumor. As for the experimental part:
To visualize normal liver parenchyma on CT imaging, rats received a bolus injection of 400 μL of the alkaline earth metal-based nanoparticle suspension, Exitron nano 12000 (Miltenyi Biotec, Auburn, CA) two hours prior to micro-CT scanning. Rats were anesthetized using inhalation of 2-3% isoflurane in 100% 02 at a constant flow rate of 2 L/minute and placed on a cassette equipped with a warming system and continuous gas exchange and integrated real-time motion detection camera. Fixed rat tissues were placed and immobilized using styrofoam beads inside a humidified plastic chamber. […] The 3D image stacks were reconstructed using NRecon software and InstaRecon CBR Server (version: 1.7.4.6, Bruker, Kontich, Belgium) following adjustment of random movements, beam-hardening correction, and ring artifact reduction and smoothing. 3D volume rendering was visualized using CTVox software (version: 3.3. 0 r1383, Bruker, Kontich, Belgium). The stacks were virtually rotated and axially oriented to yield transverse projections of select volume of interest (VOI) using Data Viewer software (Bruker, Kontich, Belgium).

In series [2] the test system is pancreas ductal adenocarcinoma (Panc-1) cells. Conditions: Panc-1, 24 hours incubation, WST-1. Here is the method: (§1) To determine synergy and the concentration of a chemotherapy agent such as doxorubicin to co-administer with LATTE, cell culture experiments were performed.
(§2) HepG2 human liver cancer cell line (ATCC CRL10741; American Type Culture Collection, Manassas, VA, USA) were cultured in 75 cm^2 flasks using growth medium consisting of low glucose Dulbecco's Modified Eagle Medium (DMEM, ThermoFisher) and 10% heat-inactivated bovine serum that was supplemented with 100 IU penicillin and 10 μg/mL streptomycin (Thermo Fisher Scientific). […] The anticancer activity of LATTE on HepG2 was determined using WST-1 reagent (2-(4-Iodophenyl)-3-(4-nitrophenyl)-5-(2,4-disulfophenyl)-2H-tetrazolium sodium) assay as an indication of viability/cytotoxicity treatment. WST-1 viability assay is based on the reduction of tetrazolium salt, WST-1 to an […] formazan dye by electron transport across the plasma membrane in viable cells that alter the optical density of the media. […] At the end of the incubation period, the medium was discarded, and the wells were rinsed three times with DPBS solution followed by addition of 100 μL growth medium and 10 μL of freshly prepared WST-1 reagent into each well and then incubated for 2 hours inside the 5% CO2 incubator at 37° C. After the incubation period, the optical percent density was measured using a microplate reader at a wavelength of 450 nm (SpectraMax iD5, Molecular Devices, San Jose, CA). Cell viability was calculated relative to control wells that received the growth medium alone. Viability rate was calculated as follows: Viability (%)=[…].

Series [3] has as its system Cholangiocarcinoma (SNU-478) cells. The following applies: SNU-478, 24 hours incubation, WST-1. Here is the method:
as §1, §2

The test system of series [4] is patient derived cholangiocarcinoma, pancreas adenocarcinoma cell lines and HepG2 hepatocellular carcinoma cells. Conditions: three cell lines, serially diluted 25-0.048% w/v, 24 or 48 hours. Here is the method: as §1, §2
For a further series, the system named is human blood clot. As for the experimental part: In a separate experiment blood coagulation was induced in uncougulated human. A blood volume of 4 mL citrated blood loaded into a polypropylene tube and mixed with 400 μL of 0.2 M calcium chloride (CaCl2) for 10 seconds. Aliquouts of 100 μL were deposited into multiple wells on a 96 well plate and the remaining blood volume was kept in the tube. Coagulation was initiated by incubating the samples at 37° C. for 10 minutes.

For the next series, the system named is subcutaneous fat tissue. The following applies: 25% LATTE mixture subcutaneous. As for the experimental part:
Additional experiments were performed on explanted fat tissue obtained from the groin area from pig in a petri dish submersed in saline (FIG. 10).

Procedure for pig liver: Ultrasound-guided injection of LATTE solution was performed in euthanized pigs or rabbits. […] Ultrasonography was used to visualize the left liver lobe parenchyma using a high-frequency transducer (A 9-MHz multi-frequency linear probe, ACUSON 52000, Siemens, Germany). The access site position was marked on the skin and a scalpel blade was used to create a small incision in the center of the marked line. The access needle was advanced through the skin incision in front of the transducer parallel its long axis until it reached the desired location then the LATTE mixture was slowly injected over one minute. At 10 minutes post-injection, the liver tissue was harvested and subjected to near-infrared fluorescent imaging (NIRF) (IVIS 200, PerkinElmer, Inc. Waltham, MA) followed by fixation and histologic evaluation.
Injection Images were acquired at 0 and 90 minutes after injection. Pig livers were scanned with a 3T MAGNETOM Skyra MRI (Siemens Healthcare, Erlangen, Germany) with an 18 channel anterior coil in combination with a 32 channel posterior spine coil. […] Scans were acquired at 0 and 90 minutes after injection. Segmentation and volume calculations were acquired using the Materialise 3-Matic and Mimics 3D image processing software (Materialise, Belgium).

For the substance choline-geranate [LATTE], in series [1], the ALP result is recorded as “*211 ± 29 U/L”, the ALT is recorded as 57 ± 13 U/L, the BUN result was “**25 ± 2.4 mg/dL” and the CRE worked out at 0.3 ± 0.04 mg/dL. Further, in series [1], the CRP was 459 ± 38 ng/mL; the GLU is listed as 268 ± 75 mg/dL; the “Total Protein” value amounted to 5.2 ± 0.3 g/dL; the “liver and renal function from serum samples” value is “normal liver and renal function”. The tumor histology entry with VX2 liver tumor (compared to saline injected tumors) is reported as “extensive necrosis”. Moreover, the “tumor perfusion (Doppler, laser speckle)” value in the series on VX2 liver tumor (following injection) is recorded as “markedly diminished perfusion”. In series [2], the “effective dose (EC50), fractional cell viability” value worked out at 0.3%. Further, in series [3], the “effective dose (EC50), fractional cell viability” value is listed as 0.2%. Besides, the “effective concentration that causes 50% cell death (EC50)” value in series [4] is recorded as 0.18-0.3%. The liver histology entry in the series with pig liver (2 mL of 25% LATTE mixed with ICG) is on record as “total destruction of tissue architecture”. In addition, in the series on pig liver (transcutaneous injection in pigs), the ablation zone size entry is “up to 4 cm”. The “clot dissolution, coagulated blood in multi-wells” value in the series on human blood clot (overlayed with LATTE) was “clot was dissolved”. In addition, the “lysis of blood clot formed in the tube” value with human blood clot (petri dish, incubation with LATTE) is given as “complete lysis”. Besides, the “adipocyte ablation in treated zone (histology)” value in the series on subcutaneous fat tissue is reported as “complete ablation of the adipocytes”.
